The Kinase Knowledgebase extract (Sharma et al. 2016)
pKi: −log10 of the molar value.

Legend:
Experiment in all cases: Enzyme Assay
[1] = biological target: PIK3CD (Human) (UniProt O00329)
[2] = biological target: PIK3CB (Human) (UniProt P42338)
[3] = biological target: PIK3CG (human) (UniProt P48736)
[4] = biological target: PIK3CA (human) (UniProt P42336)
PIK3CA (human), sequence (P42336 whole entry, looked up): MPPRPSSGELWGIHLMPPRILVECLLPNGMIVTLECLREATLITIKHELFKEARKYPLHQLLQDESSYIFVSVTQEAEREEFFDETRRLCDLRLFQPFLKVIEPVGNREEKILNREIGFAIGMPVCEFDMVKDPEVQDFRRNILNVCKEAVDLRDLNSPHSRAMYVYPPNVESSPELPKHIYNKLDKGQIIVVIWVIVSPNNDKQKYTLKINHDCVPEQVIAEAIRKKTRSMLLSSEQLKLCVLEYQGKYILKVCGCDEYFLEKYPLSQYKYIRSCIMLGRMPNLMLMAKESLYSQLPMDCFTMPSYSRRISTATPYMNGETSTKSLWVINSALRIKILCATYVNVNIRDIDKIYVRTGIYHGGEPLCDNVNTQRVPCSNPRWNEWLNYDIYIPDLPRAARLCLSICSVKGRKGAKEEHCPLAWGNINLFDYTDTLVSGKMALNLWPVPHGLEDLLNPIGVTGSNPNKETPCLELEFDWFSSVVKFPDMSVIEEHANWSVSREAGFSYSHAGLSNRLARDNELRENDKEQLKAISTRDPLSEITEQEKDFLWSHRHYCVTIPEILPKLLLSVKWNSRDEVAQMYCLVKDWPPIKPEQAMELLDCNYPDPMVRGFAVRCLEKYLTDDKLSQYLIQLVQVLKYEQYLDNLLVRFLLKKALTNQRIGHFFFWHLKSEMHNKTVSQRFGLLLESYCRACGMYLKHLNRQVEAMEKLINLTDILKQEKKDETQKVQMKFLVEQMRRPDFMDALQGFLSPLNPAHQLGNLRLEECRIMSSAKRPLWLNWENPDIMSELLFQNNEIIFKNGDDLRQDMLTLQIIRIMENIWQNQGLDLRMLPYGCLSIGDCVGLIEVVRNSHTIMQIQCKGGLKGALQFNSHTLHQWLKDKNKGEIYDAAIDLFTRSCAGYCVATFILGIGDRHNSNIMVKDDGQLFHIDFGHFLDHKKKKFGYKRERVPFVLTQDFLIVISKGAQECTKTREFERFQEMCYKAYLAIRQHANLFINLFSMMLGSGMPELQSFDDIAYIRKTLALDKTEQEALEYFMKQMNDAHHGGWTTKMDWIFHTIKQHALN

PIK3CG (human), sequence (P48736 whole entry, looked up): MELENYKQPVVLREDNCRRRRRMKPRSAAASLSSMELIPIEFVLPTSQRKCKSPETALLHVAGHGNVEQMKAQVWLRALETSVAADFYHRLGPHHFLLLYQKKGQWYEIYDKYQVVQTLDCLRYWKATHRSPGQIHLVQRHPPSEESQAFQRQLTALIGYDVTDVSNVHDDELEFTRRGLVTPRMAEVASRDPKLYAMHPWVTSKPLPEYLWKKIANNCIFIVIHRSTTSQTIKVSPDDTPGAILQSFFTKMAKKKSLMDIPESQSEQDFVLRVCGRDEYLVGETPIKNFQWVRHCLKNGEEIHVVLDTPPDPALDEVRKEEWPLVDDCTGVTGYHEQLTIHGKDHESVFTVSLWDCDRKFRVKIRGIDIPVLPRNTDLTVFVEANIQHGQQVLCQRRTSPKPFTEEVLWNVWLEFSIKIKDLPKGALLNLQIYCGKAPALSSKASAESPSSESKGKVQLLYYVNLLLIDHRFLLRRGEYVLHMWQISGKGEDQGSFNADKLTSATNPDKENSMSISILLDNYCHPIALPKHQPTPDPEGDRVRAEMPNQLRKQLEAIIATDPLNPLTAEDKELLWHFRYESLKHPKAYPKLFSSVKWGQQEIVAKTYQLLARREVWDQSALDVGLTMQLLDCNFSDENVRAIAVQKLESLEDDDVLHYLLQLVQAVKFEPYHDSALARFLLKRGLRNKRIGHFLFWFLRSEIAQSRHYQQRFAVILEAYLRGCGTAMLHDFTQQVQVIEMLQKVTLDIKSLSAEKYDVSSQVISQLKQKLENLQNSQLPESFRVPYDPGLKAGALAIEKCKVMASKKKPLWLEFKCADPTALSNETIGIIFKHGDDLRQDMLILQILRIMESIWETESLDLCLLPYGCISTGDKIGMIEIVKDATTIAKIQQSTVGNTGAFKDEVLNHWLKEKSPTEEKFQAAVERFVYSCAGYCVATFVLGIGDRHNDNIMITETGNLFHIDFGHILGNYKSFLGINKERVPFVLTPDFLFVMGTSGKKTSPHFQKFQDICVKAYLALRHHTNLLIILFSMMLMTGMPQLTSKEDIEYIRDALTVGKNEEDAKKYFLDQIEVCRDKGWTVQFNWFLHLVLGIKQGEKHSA
PIK3CB (Human), sequence (P42338 whole entry, looked up): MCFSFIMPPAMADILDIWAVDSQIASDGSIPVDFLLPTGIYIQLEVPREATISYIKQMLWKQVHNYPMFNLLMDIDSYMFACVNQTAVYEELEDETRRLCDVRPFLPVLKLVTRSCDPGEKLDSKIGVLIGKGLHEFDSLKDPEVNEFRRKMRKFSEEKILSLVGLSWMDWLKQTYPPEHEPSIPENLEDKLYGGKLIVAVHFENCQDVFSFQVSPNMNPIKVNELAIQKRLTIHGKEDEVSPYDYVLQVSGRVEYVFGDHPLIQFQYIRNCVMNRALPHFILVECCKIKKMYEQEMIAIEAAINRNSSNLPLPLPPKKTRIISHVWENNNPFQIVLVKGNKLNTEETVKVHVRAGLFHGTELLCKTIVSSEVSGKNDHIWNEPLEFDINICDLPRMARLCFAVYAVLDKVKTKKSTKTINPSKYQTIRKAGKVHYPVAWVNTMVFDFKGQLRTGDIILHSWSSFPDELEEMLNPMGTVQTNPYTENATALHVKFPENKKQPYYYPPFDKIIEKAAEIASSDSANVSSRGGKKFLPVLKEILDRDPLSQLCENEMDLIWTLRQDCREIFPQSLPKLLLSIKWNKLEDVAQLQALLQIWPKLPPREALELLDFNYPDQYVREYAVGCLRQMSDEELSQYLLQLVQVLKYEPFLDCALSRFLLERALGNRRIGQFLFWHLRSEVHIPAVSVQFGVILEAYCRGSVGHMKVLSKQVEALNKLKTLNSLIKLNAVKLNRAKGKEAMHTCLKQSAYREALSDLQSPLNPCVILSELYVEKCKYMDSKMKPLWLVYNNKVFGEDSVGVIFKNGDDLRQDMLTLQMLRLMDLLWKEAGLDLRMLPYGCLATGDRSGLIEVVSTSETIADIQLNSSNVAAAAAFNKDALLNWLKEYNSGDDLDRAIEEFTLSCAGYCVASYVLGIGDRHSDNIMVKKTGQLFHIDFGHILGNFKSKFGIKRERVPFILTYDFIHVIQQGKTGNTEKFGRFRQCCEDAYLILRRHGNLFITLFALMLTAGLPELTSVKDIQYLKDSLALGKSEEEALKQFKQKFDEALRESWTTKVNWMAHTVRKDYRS
PIK3CD (Human), sequence (O00329 whole entry, looked up): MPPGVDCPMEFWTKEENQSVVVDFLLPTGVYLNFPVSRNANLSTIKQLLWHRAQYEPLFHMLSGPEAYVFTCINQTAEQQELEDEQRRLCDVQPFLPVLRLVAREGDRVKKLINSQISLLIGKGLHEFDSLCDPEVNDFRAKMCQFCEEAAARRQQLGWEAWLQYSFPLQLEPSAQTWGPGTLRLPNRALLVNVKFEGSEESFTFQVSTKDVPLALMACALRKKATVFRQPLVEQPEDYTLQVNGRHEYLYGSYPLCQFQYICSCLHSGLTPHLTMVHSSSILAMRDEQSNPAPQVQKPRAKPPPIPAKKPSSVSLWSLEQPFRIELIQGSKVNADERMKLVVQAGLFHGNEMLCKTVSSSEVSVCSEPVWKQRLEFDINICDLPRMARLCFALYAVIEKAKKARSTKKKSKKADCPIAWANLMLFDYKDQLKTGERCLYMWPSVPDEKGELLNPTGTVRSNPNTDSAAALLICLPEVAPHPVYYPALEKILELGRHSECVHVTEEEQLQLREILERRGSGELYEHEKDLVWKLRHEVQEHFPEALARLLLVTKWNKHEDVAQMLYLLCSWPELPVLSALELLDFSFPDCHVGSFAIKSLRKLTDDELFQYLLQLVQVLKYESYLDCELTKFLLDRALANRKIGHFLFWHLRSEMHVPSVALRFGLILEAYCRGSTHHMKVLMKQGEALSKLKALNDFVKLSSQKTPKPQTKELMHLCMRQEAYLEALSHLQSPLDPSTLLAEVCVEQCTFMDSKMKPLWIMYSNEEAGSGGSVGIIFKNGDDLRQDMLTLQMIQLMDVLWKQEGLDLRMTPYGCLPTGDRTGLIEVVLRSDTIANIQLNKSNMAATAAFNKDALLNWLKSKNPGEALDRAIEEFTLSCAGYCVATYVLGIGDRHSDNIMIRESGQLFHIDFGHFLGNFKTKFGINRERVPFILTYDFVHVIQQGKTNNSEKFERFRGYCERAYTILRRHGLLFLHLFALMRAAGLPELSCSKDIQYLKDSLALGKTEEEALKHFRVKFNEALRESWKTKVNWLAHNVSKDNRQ

In the case of COC1(c2sc3c(N4CCOCC4)nc(-c4cnc(N)nc4)nc3c2C)COC1, the pKi [1] was 8.15, the pKi [2] was 7.57 and the pKi [3] was 8.15.

CC1(C)COC1c1cc2nc(-c3cnc(N)nc3)nc(N3CCOCC3)c2s1 (centres undefined) was tested, and the pKi [1] was 8.05, the pKi [2] was 7.72 and the pKi [3] was 8.30. It also gave a pKi [4] of 9.00.

For CC1(C)OCCc2c1sc1c(N3CCOCC3)nc(-c3cnc(N)nc3)nc21, the pKi [1] was 8.52, the pKi [2] was 7.85 and the pKi [3] was 8.52. For the same compound, the pKi [4] was 9.00.

Compound COC(C)(C)c1cc2nc(-c3cnc(N)nc3)nc(N3CCOCC3)c2s1 has a pKi [1] of 8.70, a pKi [2] of 7.68 and a pKi [3] of 8.40.
